Columns and labels:
Assay in all cases: biochemical
[1] = target: D(2) dopamine receptor (Homo sapiens, UniProt P14416)
Description: Displacement of the radioligand [3H]spiperone from the cloned human Dopamine receptor D2 long expressed in CHO cells

[2] = target: D(3) dopamine receptor (Homo sapiens, UniProt P35462)
Description: Displacement of the radioligand [3H]YM-09151-2 from cloned human Dopamine receptor D3 expressed in CHO cells

[3] = target: T1, D(4) dopamine receptor (Homo sapiens, UniProt P21917)
T1 sequence (P21917 whole entry): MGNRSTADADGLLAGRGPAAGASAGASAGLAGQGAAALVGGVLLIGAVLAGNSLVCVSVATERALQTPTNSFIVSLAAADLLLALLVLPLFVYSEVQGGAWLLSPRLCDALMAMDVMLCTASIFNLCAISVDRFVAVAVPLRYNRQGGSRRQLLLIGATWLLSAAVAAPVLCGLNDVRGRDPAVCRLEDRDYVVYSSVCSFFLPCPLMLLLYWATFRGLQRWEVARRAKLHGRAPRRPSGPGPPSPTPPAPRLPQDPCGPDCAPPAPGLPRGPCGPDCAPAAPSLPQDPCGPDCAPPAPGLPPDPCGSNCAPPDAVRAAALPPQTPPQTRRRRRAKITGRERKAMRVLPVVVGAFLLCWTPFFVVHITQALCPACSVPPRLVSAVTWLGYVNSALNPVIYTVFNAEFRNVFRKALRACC
Description: Displacement of the radioligand [3H]spiperone from the cloned human dopamine receptor D4 expressed in CHO cells

Sequence of D(2) dopamine receptor (P14416 whole entry): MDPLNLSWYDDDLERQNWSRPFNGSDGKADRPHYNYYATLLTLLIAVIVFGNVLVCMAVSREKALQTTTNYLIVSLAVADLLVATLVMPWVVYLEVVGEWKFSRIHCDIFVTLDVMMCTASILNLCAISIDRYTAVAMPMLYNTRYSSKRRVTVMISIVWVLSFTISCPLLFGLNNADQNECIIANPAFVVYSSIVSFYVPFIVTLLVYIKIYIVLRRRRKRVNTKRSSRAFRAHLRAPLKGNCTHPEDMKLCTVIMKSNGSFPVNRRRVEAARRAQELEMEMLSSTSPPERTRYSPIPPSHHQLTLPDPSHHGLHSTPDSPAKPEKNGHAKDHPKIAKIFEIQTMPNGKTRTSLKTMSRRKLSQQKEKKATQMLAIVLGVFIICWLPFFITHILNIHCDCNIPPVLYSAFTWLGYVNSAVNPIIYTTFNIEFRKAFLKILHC
Sequence of D(3) dopamine receptor (P35462 whole entry): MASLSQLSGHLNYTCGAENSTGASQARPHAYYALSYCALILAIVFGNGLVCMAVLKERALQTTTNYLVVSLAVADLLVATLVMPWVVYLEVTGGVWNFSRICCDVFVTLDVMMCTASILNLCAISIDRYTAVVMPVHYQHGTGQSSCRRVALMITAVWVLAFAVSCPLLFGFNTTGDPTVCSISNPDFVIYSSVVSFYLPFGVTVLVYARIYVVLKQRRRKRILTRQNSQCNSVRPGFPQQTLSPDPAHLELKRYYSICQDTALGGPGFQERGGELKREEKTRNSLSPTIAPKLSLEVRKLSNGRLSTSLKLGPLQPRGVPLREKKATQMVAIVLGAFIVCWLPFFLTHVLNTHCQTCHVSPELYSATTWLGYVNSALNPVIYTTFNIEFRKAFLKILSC

Structure (SMILES) | Ki [1] | Ki [2] | Ki [3]
CCOc1ccccc1N1CCN(CCCCc2cc(-c3cccc([N+](=O)[O-])c3)no2)CC1 | 0.095 µM | 0.019 µM | 0.051 µM
c1ccc(-c2cc(CCCCN3CCN(c4ccccc4)CC3)on2)cc1 | 3.37 µM | 0.018 µM | 0.541 µM
CCOc1ccccc1N1CCN(CCCCc2cc(-c3ccc(OC)c(OC)c3)no2)CC1 | 0.119 µM | 0.0026 µM | 0.028 µM
O=[N+]([O-])c1cccc(-c2cc(CCCCN3CCN(c4ccccc4)CC3)on2)c1 | 1.47 µM | 0.06 µM | 1.7 µM
Fc1ccc(-c2cc(CCCCN3CCN(c4ccccc4)CC3)on2)cc1 | 2.53 µM | 0.012 µM | 0.096 µM
COc1ccccc1N1CCN(CCCCc2cc(/C=C/c3ccccc3)no2)CC1 | 0.964 µM | 0.015 µM | 0.088 µM
Fc1ccc(-c2cc(CCCCN3CCN(C(c4ccccc4)c4ccccc4)CC3)on2)cc1 | 1.46 µM | 0.03 µM | 1.35 µM
COc1ccc(-c2cc(CCCCN3CCN(c4ccccc4OC)CC3)on2)cc1OC | 0.418 µM | 0.0052 µM | 0.257 µM
COc1ccccc1N1CCN(CCCCc2cc(-c3cccc([N+](=O)[O-])c3)no2)CC1 | 0.295 µM | 0.006 µM | 0.05 µM
c1ccc(-c2cc(CCCCN3CCN(C(c4ccccc4)c4ccccc4)CC3)on2)cc1 | 0.486 µM | 0.015 µM | 2.24 µM
COc1ccc(-c2cc(CCCCN3CCN(c4ccccc4C)CC3)on2)cc1OC | 1.4 µM | 0.038 µM | 0.413 µM
c1ccc(N2CCN(CCCCc3cc(-c4cccs4)no3)CC2)cc1 | 4.14 µM | 0.015 µM | 0.117 µM
COc1ccccc1N1CCN(CCCCc2cc(-c3cccs3)no2)CC1 | 0.726 µM | 0.0047 µM | 0.021 µM
COc1ccc(-c2cc(CCCCN3CCN(C(c4ccccc4)c4ccccc4)CC3)on2)cc1OC | 2.62 µM | 0.02 µM | 2.44 µM
COc1ccc(-c2cc(CCCCN3CCN(c4ccccc4)CC3)on2)c(OC)c1 | 2.2 µM | 0.016 µM | 0.076 µM
CCOc1ccccc1N1CCN(CCCCc2cc(-c3ccccc3)no2)CC1 | 0.341 µM | 0.009 µM | 0.034 µM
c1ccc(C(c2ccccc2)N2CCN(CCCCc3cc(-c4cccs4)no3)CC2)cc1 | 0.62 µM | 0.052 µM | 2.15 µM
C(=C\c1cc(CCCCN2CCN(C(c3ccccc3)c3ccccc3)CC2)on1)/c1ccccc1 | 0.491 µM | 0.04 µM | 0.603 µM
C(=C\c1cc(CCCCN2CCN(c3ccccc3)CC2)on1)/c1ccccc1 | 9.72 µM | 0.027 µM | 0.346 µM
COc1ccc(-c2cc(CCCCN3CCN(c4ccccc4OC)CC3)on2)c(OC)c1 | 0.44 µM | 0.0065 µM | 0.034 µM
COc1ccccc1N1CCN(CCCCc2cc(-c3ccc(F)cc3)no2)CC1 | 0.321 µM | 0.023 µM | 0.033 µM
Cc1ccccc1N1CCN(CCCCc2cc(-c3cccs3)no2)CC1 | 2.11 µM | 0.163 µM | 0.465 µM
COc1ccccc1N1CCN(CCCCc2cc(-c3ccccc3)no2)CC1 | 1.73 µM | 0.0095 µM | 0.198 µM
COc1ccc(-c2cc(CCCCN3CCN(C(c4ccccc4)c4ccccc4)CC3)on2)c(OC)c1 | 3.83 µM | 0.016 µM | 1.12 µM
O=[N+]([O-])c1cccc(-c2cc(CCCCN3CCN(C(c4ccccc4)c4ccccc4)CC3)on2)c1 | 1.52 µM | 0.019 µM | 2.31 µM
Fc1ccccc1N1CCN(CCCCc2cc(/C=C/c3ccccc3)no2)CC1 | 0.585 µM | 0.01 µM | 0.058 µM
COc1ccc(-c2cc(CCCCN3CCN(c4ccccc4F)CC3)on2)cc1OC | 5.15 µM | 0.02 µM | 0.233 µM
COc1ccc(-c2cc(CCCCN3CCN(c4ccccc4)CC3)on2)cc1OC | 3.39 µM | 0.024 µM | 0.774 µM
CCOc1ccccc1N1CCN(CCCCc2cc(-c3cccs3)no2)CC1 | 0.194 µM | 0.0039 µM | 0.012 µM
Cc1ccccc1N1CCN(CCCCc2cc(-c3ccccc3)no2)CC1 | 6.51 µM | 0.292 µM | 0.683 µM

Reference: ChEMBL document CHEMBL1135103, “Design and synthesis of a piperazinylalkylisoxazole library for subtype selective dopamine receptor ligands” (Bioorg Med Chem Lett, 2002)
